This note sets out measurements from patent US20230145868A1, “UREA INHIBITORS OF MICRO-RNA” (Board of Regents, The University of Texas System, priority 2020, published 2023).

Series [1] deals with miR-10b. Kind of series: qRT-PCR of miR-10b in cerebral organoids co-cultured with brain cancer cells. In kind it is cell-based, human. The note with it: 10 μM, 48 h. From the text:
For co-culturing with cerebral organoids, the brain cancer cell lines U251 and LN229 were transduced with an RFP lentiviral vector expressing mCherry and luciferase, and sorted twice via an Aria Influx Cell Sorter.
Human induced pluripotent stem cell (iPSC) derived cerebral organoids were obtained, courtesy of Dr. Sanjay Singh and Dr. Frederick Lang in the Department of Neurosurgery at MD Anderson Cancer Center. Organoids were maintained in a specialized neural based media on a shaker inside a 37° C. incubator. After maturation, organoids were moved to 24-well ultra-low attachment plates, and individually co-cultured with 5×10^5−1×10^6 cells from brain cancer cell lines for approximately 48-72 h, until RFP signal was clear on the surface of the organoid, indicating cell attachment. Organoids were then moved to 6 well plates and grouped into triplicates within the well. The treatment regimen of control, and 4 was started, at an analogous schedule to in vitro experiments. For fixation and embedding for in situ hybridization, the organoids were processed using 4% PFA and placed in OCT in −80° C. for sectioning.

Series [2] has as its system human pre-miR-10b RNA hairpin. Kind of series: NMR detection of compound binding to miRNA. On the procedure:
The human pre-miR-10b RNA hairpin sequence (nucleotides 40-75, per miRbase) was transcribed enzymatically and purified using methods previously described. The NMR screening buffer consisted of 20 mM Bis-Tris-d19 at pH 6.5, 10 mM NaCl, 0.2% Tween-20, and 11.1 μM DSA as chemical shift reference (integrates to 100 μM), prepared in 99.99% D2O or 95%H2O/5%D2O. Each ligand was first dissolved in DMSO to a 10 mM stock concentration. Free ligand screening samples were prepared at a final DMSO concentration of […] at a concentration of 100 μM in NMR screening buffer. For RNA target detected experiments, the lyophilized RNA pellets were dissolved in DMSO-free NMR screening buffer and heated for 4 min at 90° C., then snap cooled for 5 min at −20° C. ^1D-^1H experiments for both ligand and RNA were collected using the Bruker “zgesgp” excitation sculpting pulse sequence to suppress background water signal. Data was collected with 64 scans and 16K data points. Data was processed using 16K zero points, then Fourier transformed followed by manual phase and baseline correction. 2D-^1H TOCSY experiments were collected using the Bruker “mlevesgpph” pulse sequence with excitation sculpting water suppression, data collected with 32 scans, 2K×512 data points, a recycle delay of 1.2 s, and spin-lock mixing time of 80 ms. […]

Series [3] has as its system PDGF. Kind of series: Western blot, PDGF expression. The note with it: LN229 and U251 brain cancer cell lines. In kind it is cell-based, human. On the procedure:
Proteins are collected from cultured cells and lysed with 10× Lysis Buffer (Cell Signaling) freshly supplemented with a complete protease inhibitor cocktail and phosphatase inhibitors (Sigma). Bradford assay is used to measure protein concentration. Proteins are separated by polyacrylamide gel (Bio-rad) electrophoresis and were transferred to a 0.2 μm nitrocellulose membrane (Bio-rad). Quantification of protein expression was conducted using the image analysis software ImageJ.
On the technique in general: Immunoblotting shows a protein as a band on a membrane.

Series [4] relates to U251 brain cancer cell line. Kind of series: Cell cycle analysis via flow cytometry. Format: cell-based, human. The note with it: 5 μM. On the procedure: In 6-well plates, 1×10^5 cells/mL were added into each well. After 24 h, sequential concentrations of DMSO and 4 based were administered and the plates were incubated for 48 h. The supernatant and adherent cells were collected and centrifugated. Each dose was done in triplicate, with each sample composing two wells. For apoptosis analysis, the supernatant was discarded after centrifugation and the pellet washed with PBS twice. Then, BD Annexin V-FITC/PI used to stain the cells for analysis via flow cytometry on the Gallios machine. For cell cycle analysis, after washing with PBS, cells were fixed with ethanol and incubated. They, were treated with RNase enzyme and analyzed.

The nature of series [5]: Microsomal stability assay, rat. Format: in vitro ADME. Conditions: 1 μM test compound, unit printed in b356 only. The method, then: (§1) The liver microsomal incubation mixture was composed of liver microsomes (with a concentration of 0.5 mg microsomal protein/ml), the test compound (1 μM), MgCl2 (3 mM), EDTA (1 mM) in potassium phosphate buffer (100 mM, pH 7.4). Control substrates used were Midazolam and Ketanserin. The reaction was initiated with the addition of an NADPH regeneration solution (1.3 mM NADPH) and maintained at 37° C. with shaking. At five sequential time points ranging from 0 to 45 min, aliquots of the mixture (50 μL) were removed and quenched with acetonitrile (100 μL) containing an internal standard control (imipramine) Samples were analyzed after vortexing and centrifugation by liquid chromatography-mass spectrometry (LC-MS/MS). The in vitro t1/2 was then calculated and clearance followed literature.

Series [6] has as its system U251, LN229, AGS, AsPC1 cell lines. Kind of series: Cell viability IC50 dose-response curves. Format: cell-based, human. The note with it: majority of cell lines (U251, LN229, AGS, AsPC1); values not given. On the procedure: IC50 dose-response curves were determined using the cell proliferation assay system. Briefly, 5,000 or 10,000 cells of each cell line were plated in 96-well microculture plates in replicates of either 4 or 6. When cells became adherent, either 5 or 10 sequentially decreasing doses of the small molecule miRNA inhibitor were diluted into new media and added to individual wells. After either 24 or 48 hours, of a tetrazolium salt such as MTS, MTT, or WST-8 was added to each well at the same time of day as treatment and incubated for either 2 or 3 h at 37° C. The OD, measuring at the appropriate wavelength for the dye, was read at on a microplate spectrophotometer.

The nature of series [7]: Microsomal stability assay, mouse. In kind it is in vitro ADME. Conditions: 1 μM test compound, unit printed in b356 only. On the procedure: as §1
The subject of series [8] is U251 brain cancer cell line. Kind of series: Cell morphology. The note with it: over the course of 48 h. In kind it is cell-based, human.
[9] abbreviates: rat, liver microsomes, pH 7.4, rat liver microsomes.
Where [10] appears, read: mouse, liver microsomes, pH 7.4, mouse liver microsomes.

The structures appear in SMILES notation.

For orientation: CLint scaled means the rate of metabolic loss divided by the concentration. The half-life is the time needed for the level to fall by half in the phase considered. Read a high half-life as slow loss. Turning to `Cc1ccc(F)c(NC(=O)Nc2ccc(-c3cccc4cn[nH]c34)cc2)c1` [Example 4, 1-(4-(1H-indazol-7-yl)phenyl)-3-(2-fluoro-5-methylphenyl)urea], the “miR-10b levels (qRT-PCR)” value in series [1] (cerebral organoids co-cultured with LN229) and in series [1] (cerebral organoids co-cultured with U251) was “Significant downregulation of miR-10b” in each case. Moreover, the “target detect 2D 1H-1H TOCSY, binding to pre-miR-10b” value in series [2] (50 μM pre-miR-10b titrated with 100 μM, largest shifts U6, U7, U8, U26, C27, C29, U33) is “directly binds to the hairpin structure of precursor miR-10b”. In series [2] (ligand with pre-miR-10b sequence, methyl protons, indicative of direct binding), the “ligand detected 1D-1H line broadening (peak signal free vs bound)” value is given as “large decrease in peak signal”. The “PDGF expression (Western blot)” value in series [3] was “low to very slight variations”. Also, the “cell cycle phase distribution” value in series [4] is “clear increase shown at the G2/M phase”. Also, the CLint turned out to be 41.1 mL/min/kg in series [5] (rat liver microsomes) and 58.9 mL/min/kg in series [7] (mouse liver microsomes). Also, the Half-life in series [5] (rat liver microsomes) came out at 1.01 h; in series [7] (mouse liver microsomes), 1.55 h. Also, the CLint scaled at 1 μM came out at 41 mL/min/kg in series [5] (setting [9]) and 58 mL/min/kg in series [7] (setting [10]). In addition, the values for the half-life at 1 μM in series [5] (setting [9]) and in series [7] (setting [10]) were 1 h and 1.53 h, respectively. Moreover, the “IC50 at 48 h compared with IC50 at 24 h” value in series [6] was “lower than the corresponding IC50 value at 24 h”. Also, the “morphology of the cells” value in series [8] is reported as “significant change in the morphology”.
